The record followed here is patent publication US7803930B2, “Antisense modulation of apolipoprotein B-expression” (Isis Pharmaceuticals, Inc., priority 2002, dated 2010).

The data set relates to human apolipoprotein B mRNA. Briefly: Inhibition of human apolipoprotein B mRNA levels in HepG2 cells, quantitative real-time PCR. To be noted: averages from two experiments; for % INHIB (inhibition of human apolipoprotein B mRNA levels): HepG2 cells treated with 150 nM of compound, quantitative real-time PCR. The format is cell-based. The method in brief: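 HepG2 cells at 80% confluency were transfected with antisense oligonucleotide using 3.75 μg/mL Lipofectin in Opti-MEM for 4-7 h and harvested 16-24 h after treatment. Apolipoprotein B mRNA was measured by real-time RT-PCR and normalized to GAPDH or RiboGreen total RNA. Percent inhibition came from untreated-control standard curves.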
(Quantitative PCR measures a nucleic acid by following its amplification.)

In the oligonucleotide strings, read from the 5' end, every base follows the letter of its sugar. An asterisk marks phosphorothioate; unmarked linkages are phosphodiester. Other units and linkages are bracketed, terminal groups are in braces. A string of capitals states the bases alone. e = 2'-O-(2-methoxyethyl) (MOE); [5mC] = 5-methylcytosine; d = 2'-deoxy (DNA)

Turning to “271047 (e[5mC]*e[5mC]*eT*e[5mC]*e[5mC]*d[5mC]*dT*d[5mC]*dA*dT*dG*dA*dA*d[5mC]*dA*eT*eA*eG*eT*eG; antisense) [compound 271047]”, the “% INHIB” value (Table 12, HepG2 cells, 150 nM) was 32%.
Take “271048 (e[5mC]*eT*eG*eA*eA*dG*dA*dT*dT*dA*d[5mC]*dG*dT*dA*dG*e[5mC]*eA*e[5mC]*e[5mC]*eT; antisense) [compound 271048]”: the “% INHIB (inhibition of human apolipoprotein B mRNA levels)” value was found to be 7%.
Regarding “271049 (eG*eT*e[5mC]*e[5mC]*eA*dG*d[5mC]*d[5mC]*dA*dA*d[5mC]*dT*dA*dT*dA*e[5mC]*eT*eT*eG*eG; antisense) [compound 271049]”, the “% INHIB (inhibition of human apolipoprotein B mRNA levels)” value is listed as 54%.
Same read-out and setting: then “271050 (e[5mC]*e[5mC]*eT*eG*eG*dA*dG*d[5mC]*dA*dA*dG*d[5mC]*dT*dT*d[5mC]*eA*eT*eG*eT*eA; antisense) [compound 271050]”, with 42%.
The same measure, in the same setting: for “281586 (eT*eG*eG*eA*e[5mC]*dA*dG*dA*d[5mC]*d[5mC]*dA*dG*dG*d[5mC]*dT*eG*eA*e[5mC]*eA*eT; antisense) [compound 281586]” the value was 80%.
As to “281587 (eA*eT*eG*eT*eG*dT*dA*d[5mC]*dT*dT*d[5mC]*d[5mC]*dG*dG*dA*eG*eG*eT*eG*e[5mC]; antisense) [compound 281587]”, the “% INHIB (inhibition of human apolipoprotein B mRNA levels)” value is on record as 77%.
On to “281588 (eT*e[5mC]*eT*eT*e[5mC]*dA*dG*dG*dA*dT*dG*dA*dA*dG*d[5mC]*eT*eG*e[5mC]*eA*eG; antisense) [compound 281588]”, for which the “% INHIB (inhibition of human apolipoprotein B mRNA levels)” value was determined as 80%.
With “281589 (eT*e[5mC]*eA*eG*e[5mC]*dA*dA*dG*dG*d[5mC]*dT*dT*dT*dG*d[5mC]*e[5mC]*e[5mC]*eT*e[5mC]*eA; antisense) [compound 281589]”, the “% INHIB (inhibition of human apolipoprotein B mRNA levels)” value is 90%.
Still for that read-out and setting: then “281590 (e[5mC]*eT*eG*e[5mC]*eT*dT*d[5mC]*d[5mC]*d[5mC]*dT*dT*d[5mC]*dT*dG*dG*eA*eA*eT*eG*eG; antisense) [compound 281590]”, with 84%.
Still for that read-out and setting: then “281591 (eT*eG*e[5mC]*e[5mC]*eA*d[5mC]*dA*dT*dT*dG*d[5mC]*d[5mC]*d[5mC]*dT*dT*e[5mC]*e[5mC]*eT*e[5mC]*eG; antisense) [compound 281591]”, with 90%; and “281592 (eG*e[5mC]*eT*eG*eA*dT*d[5mC]*dA*dG*dA*dG*dT*dT*dG*dA*e[5mC]*eA*eA*eG*eG; antisense) [compound 281592]”, with 56%; and “281593 (eT*eA*e[5mC]*eT*eG*dA*d[5mC]*dA*dG*dG*dA*d[5mC]*dT*dG*dG*e[5mC]*eT*eG*e[5mC]*eT; antisense) [compound 281593]”, with 93%.
The same measure, in the same setting: then “281594 (eG*eA*eT*eG*eG*d[5mC]*dT*dT*d[5mC]*dT*dG*d[5mC]*d[5mC]*dA*d[5mC]*eA*eT*eG*e[5mC]*eT; antisense) [compound 281594]”, with 74%; and “281595 (eG*eA*eT*eG*eT*dG*dG*dA*dT*dT*dT*dG*dG*dT*dG*e[5mC]*eT*e[5mC]*eT*e[5mC]; antisense) [compound 281595]”, with 76%.
Regarding “281596 (eT*eG*eA*e[5mC]*eT*dG*d[5mC]*dT*dT*d[5mC]*dA*dT*d[5mC]*dA*d[5mC]*eT*eG*eA*eG*eG; antisense) [compound 281596]”, the “% INHIB (inhibition of human apolipoprotein B mRNA levels)” value was 77%.
Same read-out and setting: for “281597 (eG*eG*eT*eA*eG*dG*dT*dG*dA*d[5mC]*d[5mC]*dA*d[5mC]*dA*dT*e[5mC]*eT*eA*eT*e[5mC]; antisense) [compound 281597]” the value was 36%.
Same read-out and setting: then “281598 (eT*e[5mC]*eG*e[5mC]*eA*dG*d[5mC]*dT*dG*d[5mC]*dT*dG*dT*dG*d[5mC]*eT*eG*eA*eG*eG; antisense) [compound 281598]”, with 70%.
Same read-out and setting: for “281599 (eT*eT*e[5mC]*e[5mC]*eA*dA*dT*dG*dA*d[5mC]*d[5mC]*d[5mC]*dG*d[5mC]*dA*eG*eA*eA*eT*e[5mC]; antisense) [compound 281599]” the value was 74%; for “281600 (antisense eG*eA*eT*e[5mC]*eA*dT*d[5mC]*dA*dG*dT*dG*dA*dT*dG*dG*e[5mC]*eT*eT*eT*eG) [compound 281600]”, 52%.
Regarding “281601 (antisense eA*eG*e[5mC]*e[5mC]*eT*dG*dG*dA*dT*dG*dG*d[5mC]*dA*dG*d[5mC]*eT*eT*eT*e[5mC]*eT) [compound 281601]”, the “% INHIB (inhibition of human apolipoprotein B mRNA levels)” value came out at 83%.
Same read-out and setting: for “281602 (antisense eG*eT*e[5mC]*eT*eG*dA*dA*dG*dA*dA*dG*dA*dA*d[5mC]*d[5mC]*eT*e[5mC]*e[5mC]*eT*eG) [compound 281602]” the value was 84%.
Still for that read-out and setting: then “281603 (antisense eT*eA*eT*e[5mC]*eT*dG*d[5mC]*d[5mC]*dT*dG*dT*dG*dA*dA*dG*eG*eA*e[5mC]*eT*e[5mC]) [compound 281603]”, with 82%.
Still for that read-out and setting: then “281604 (antisense e[5mC]*eT*eG*eA*eG*dT*dT*d[5mC]*dA*dA*dG*dA*dT*dA*dT*eT*eG*eG*e[5mC]*eA) [compound 281604]”, with 78%; and “281605 (antisense e[5mC]*eT*eT*e[5mC]*e[5mC]*dA*dA*dG*d[5mC]*d[5mC]*dA*dA*dT*d[5mC]*dT*e[5mC]*eG*eA*eT*eG) [compound 281605]”, with 82%.
Turning to “281606 (antisense eT*eG*e[5mC]*eA*eA*d[5mC]*dT*dG*dT*dA*dA*dT*d[5mC]*d[5mC]*dA*eG*e[5mC]*eT*e[5mC]*e[5mC]) [compound 281606]”, the “% INHIB (inhibition of human apolipoprotein B mRNA levels)” value was 86%.
“281607 (antisense e[5mC]*e[5mC]*eA*eG*eT*dT*d[5mC]*dA*dG*d[5mC]*d[5mC]*dT*dG*d[5mC]*dA*eT*eG*eT*eT*eG) [compound 281607]”: the “% INHIB (inhibition of human apolipoprotein B mRNA levels)” value was 84%.
Same read-out and setting: for “281608 (antisense eG*eT*eA*eG*eA*dG*dA*d[5mC]*d[5mC]*dA*dA*dA*dT*dG*dT*eA*eA*eT*eG*eT) [compound 281608]” the value was 62%; for “281609 (antisense e[5mC]*eG*eT*eT*eG*dG*dA*dG*dT*dA*dA*dG*d[5mC]*dG*d[5mC]*e[5mC]*eT*eG*eA*eG) [compound 281609]”, 70%; for “281610 (antisense e[5mC]*eA*eG*e[5mC]*eT*d[5mC]*dT*dA*dA*dT*d[5mC]*dT*dG*dG*dT*eG*eT*e[5mC]*e[5mC]*e[5mC]) [compound 281610]”, 69%.
The same measure, in the same setting: then “281611 (antisense e[5mC]*eT*eG*eT*e[5mC]*d[5mC]*dT*d[5mC]*dT*d[5mC]*dT*d[5mC]*dT*dG*dG*eA*eG*e[5mC]*eT*e[5mC]) [compound 281611]”, with 93%; and “281612 (antisense e[5mC]*eA*eA*eG*eG*dT*d[5mC]*dA*dT*dA*d[5mC]*dT*d[5mC]*dT*dG*e[5mC]*e[5mC]*eG*eA*eT) [compound 281612]”, with 83%.
